Measurements taken from patent publication US20250041367A1, “BACTERIOPHAGES AND USE THEREOF FOR THE TREATMENT OR PREVENTION OF INFECTION CAUSED BY E. COLI” (Purdue Research Foundation, priority 2023, published 2025).

Columns and labels:
[1] = test system: APEC strain O2:H4; test: Antibiogram by micro-broth dilution (MIC); assay type: cell-based, Escherichia coli; details: confirmed on sorbitol-MacConkey agar
Procedure: (§1) As non-pathogenic E. coli are among the bacteria normally present in chickens' gastrointestinal tracts, potential antibiotic resistance selection markers in challenge APEC strains were identified by conducting antibiograms of each APEC strain in the library of APEC strains using a previously described micro-broth dilution method. 90 μL of Brain Heart Infusion broth was aliquoted into each well of 96-well plates. Antibiotics (specifically, kanamycin, gentamycin, neomycin, nalidixic acid, streptomycin, and ampicillin) were added to wells in order to establish an antibiotic concentration gradient spanning across each antibiotic's minimum inhibitory concentration (MIC) as reported by NARMS. […] Following incubation, the lowest concentration of each antibiotic that prevented visible bacterial growth was recorded as the MIC for that antibiotic. MICs were confirmed for each APEC strain by plating each strain on sorbitol-MacConkey agar supplemented with antibiotics at the determined MICs and incubating plates overnight at 37° C. The challenge APEC strain was then selected by incubating samples from chicken ceca on sorbitol-MacConkey agar supplemented with antibiotics at the determined MICs and incubating these samples overnight at 37° C. […]

[2] = test system: all other bacteria in the cecal samples; test: Chicken cecal samples on sorbitol-MacConkey agar supplemented with antibiotics; assay type: cell-based; details: streptomycin 64 ug/mL and gentamycin 32 ug/mL, overnight 37° C.
Procedure: as §1

[3] = test system: APEC serotype O2:H4; test: Lytic capacity of the six-phage treatment compared with antibiotics (OD600); assay type: cell-based, Escherichia coli; details: APEC O2:H4, antibiotic at its minimum inhibitory concentration (NARMS), 1-4 hours
Procedure: The six APEC strains were individually inoculated into LB broth and incubated at 37° C. until they reached log-phase growth. Phages were added to the log-phase culture of their APEC host at an MOI of 10, and subsequent bacterial concentrations were determined by measuring the absorbance (OD600) of the culture at 1, 2, 3, and 4 hours post-phage application. One flask containing only bacterial culture was included as a negative control. Additional flasks containing both bacterial cultures and antibiotics (specifically, gentamycin sulfate, kanamycin sulfate, nalidixic acid, or chloramphenicol) at their respective minimum inhibitory concentrations (National Antibiotic Resistance Monitoring System (NARMS) 2019, antibiotics tested by NARMS) were included as positive controls. These lytic capacity experiments were conducted in triplicate for each of the phage types and their respective host APEC strains.

Question: For `[H]/N=C(/N)N[C@H]1[C@H](O)[C@@H](O)[C@H](O[C@@H]2O[C@@H](C)[C@](O)(C=O)[C@H]2O[C@@H]2O[C@@H](CO)[C@H](O)[C@@H](O)[C@@H]2NC)[C@@H](N/C(N)=N\[H])[C@@H]1O` [streptomycin], which “antibiotic concentration at which APEC strain O2:H4 is resistant” value [1] is on record?
Answer: 64 µg/mL

Question: And the “growth of all other bacteria in the cecal samples” value [2]?
Answer: prohibit the growth

Question: Which “antibiotic concentration at which APEC strain O2:H4 is resistant” value [1] does the source give for gentamycin here?
Answer: 32 µg/mL

Question: And the “growth of all other bacteria in the cecal samples” value [2]?
Answer: prohibit the growth

Question: And the “OD600 readings of antibiotic-treated APEC cultures over time” value [3]?
Answer: increased over time
